Experimental data as given in patent publication US20250084116A1, “MIXTURE OF STEREOISOMERS OF A SULFATED GLYCOLIPID” (NATIONAL RESEARCH COUNCIL OF CANADA, priority 2022, published 2025).
“Also recorded” adds a separate entry of the source.

How the values were obtained:
C57BL/6NCrl mice [1] = assay: In vivo cytotoxicity assay of Ova-CD8+ T cells; settings: for In vivo cytotoxicity of Ova-CD8+ T cells, comparison with AddaVax-Ova (ANOVA, Tukey): 10 μg Ova and 1 mg SLA, target cells injected day 27, read day 28; for Change in cytotoxic killing on reducing SLA dose: 1.0 mg reduced to 0.3 mg SLA; for CD8+ T cell cytotoxicity at lower Ova antigen or SLA adjuvant dose: lower dose (1 μg Ova or 0.3 mg SLA) versus optimal dose
Text: (§1) C57BL/6NCrl mice (6-8 weeks) were obtained from Charles River Laboratories (Saint-Constant, QC, Canada). Mice were maintained in individually ventilated cages with five female mice to a cage with easy access to food and water in a specific pathogen-free small animal facility with automatically controlled light/dark cycles, humidity and temperature at the National Research Council of Canada (NRC) in accordance with the guidelines of the Canadian Council on Animal Care. The animal use protocol (2016.08) was approved by the NRC Animal Care Committee. All mice were randomized upon entering the facility and were immunized and had samples collected and tested in a blinded method.
(§2) C57BL/6NCrl mice were immunized by i.m. injection (50 μL) into the left tibialis anterior muscle. All mice were immunized twice in a prime/boost regime on day 0 and day 21. Blood samples were taken for sera collection before boost on day 20 as well as on day 28 immediately prior to euthanasia where whole spleens were collected in necropsy.
(§3) SLA archaeosomes were prepared as described previously.^12 Briefly, SLA lipids (SLA-1, SLA-2 or SLA-3) were dissolved in chloroform/methanol and aliquoted to a glass vial; the organic solvent was removed under N2 gas with mild heating to form a thin lipid layer. A vacuum was applied for at least 2 h to ensure total removal of trace solvents. The lipid film was then hydrated with 1.0 mL of Milli-Q water and was shaken for 2 h at 40° C. or until hydration was completed. Archaeosome vesicles were reduced in size using a tabletop ultrasonic water bath (Fisher Scientific FS60H, 130 W and operating frequency of 40 kHz) and high pressure; they were then left to anneal at 4° C. for 12 h in static conditions and finally filter-sterilized through 0.22 μm filter units. The Ova protein solution (type VI, Sigma-Aldrich, Oakville, ON, Canada) was then added to the empty archaeosomes at the desired amount immediately before immunization so that a single dose contained 1 mg or 0.3 mg of SLA and 10 μg or 1 μg of antigen. The commercial adjuvant AddaVax™ (squalene-oil-in-water emulsion, Invivogen, San Diego, CA, USA) was prepared according to manufacturer's recommendations and mixed with 10 μg Ova protein at 1:1, v:v. The TLR4 agonist monophosphoryl Lipid A (MPLA from S. Minnesota R595 VacciGrade, InvivoGen, San Diego, CA, USA) was combined with Alum (Alhydrogel™ “85”, aluminum hydroxide, Brenntag Biosector, Frederikssund, Denmark), 10 μg: 40 μg respectively and 1 μg Ova. All solutions were brought to a physiological pH of 7.4 in phosphate-buffered saline (PBS).
The activity of antigen-specific CD8^+ T cells (CTL) was measured in vivo as previously described.^10 Briefly, donor spleen-cell suspensions from naïve C57BL/6NCrl mice were prepared. Cells were split into two aliquots. One aliquot was incubated at 37° C. with […] SIINFEKL (JPT Peptide Technologies GmbH) in RIO complete medium (RPMI 1640 with 10% heat-inactivated fetal bovine serum, 1% penicillin/streptomycin, 1% glutamine and 55 μM 2-mercaptoethanol) (Thermo Fisher Scientific, Waltham, MA, USA). After 30 min of incubation, the peptide-pulsed aliquot was stained with a high 10× concentration of CFSE (2.5 μM; Thermo Fisher Scientific); the second non-peptide-pulsed aliquot was stained with 1×CFSE ([…]). Two aliquots of cells (10×10^6/each) were mixed 1:1 and injected into previously immunized recipient mice. Mice injected with Ova alone dissolved in PBS served as controls. At ˜20 to 22 h after the donor cell transfer, spleens were removed from recipients, single-cell suspensions prepared, and cells analyzed by flow cytometry on a BD Fortessa flow cytometer (Becton Dickinson, Franklin Lakes, NJ, USA). The in vivo percentage of peptide pulsed targets relative to non-peptide pulsed targets was enumerated according to a previously published equation.^21, 24-25
(§4) Data were analyzed using GraphPad Prism 9® (GraphPad Software, San Diego, CA, USA). […]

C57BL/6NCrl mice [2] = assay: Enumeration of IFN-γ secreting Ova-CD8+ T cells in spleen by ELISPOT; type: in vivo; settings: for Number of IFN γ-secreting Ova-CD8+ T cells, comparison with AddaVax-Ova (ANOVA, Tukey) / Number of IFN γ-secreting Ova-CD8+ T cells, comparison with MPL/alum-Ova (ANOVA, Tukey): 10 μg Ova and 1 mg SLA; for Change in ability to induce IFN-γ+ Ova-CD8+ T cells on reducing SLA dose: 1.0 mg reduced to 0.3 mg SLA; for Differences between SLA formulations to produce IFN-γ+ Ova-CD8+ T cells: at each dose tested
Text: as §1, §2, §3
The Enumeration of IFN-γ secreting cells was done by use of an ELISPOT assay as previously described.^12 Briefly, spleen cells (at a final cell density of 4×10^5 cells/well) were added to 96-well ELISPOT plates coated with anti-IFN-γ (Mabtech Inc., Cincinnati, OH, USA), and incubated in the presence of a peptide stimulant (or non-stimulant control) for 20 h at 37° C., 5% CO2. Peptide stimulant consisted of SIINFEKL, an Ovalbumin CD8^+ T cell epitope Ova257-264. Plates were then incubated, washed and developed using AEC substrate (Becton Dickinson, Franklin Lakes, NJ, USA) and counted using an automated ELISPOT plate reader by BIOSYS (Miami, FL, USA).
Data were analyzed using GraphPad Prism 9® (GraphPad Software, San Diego, CA, USA). Antibody titers were log transformed prior to testing and shown as geometric mean titer (GMT) with the lower and upper 95% confidence interval shown in the graph and written in the text. All in vivo generated data were analyzed with the one-way analysis of variance (ANOVA) test followed by post-hoc analysis using Tukey's multiple comparisons test (comparisons among all groups), as indicated in the figure legends. For all analyses, differences were considered to be not significant with p>0.05.

C57BL/6NCrl mice [3] = assay: Anti-Ova total IgG titres in serum of immunized mice (ELISA); type: in vivo; settings: day 28, two immunizations, 1 μg Ova and 1 mg SLA
Text: as §1
C57BL/6NCrl mice were immunized by i.m. injection (50 μL) into the left tibialis anterior muscle. All mice were immunized twice in a prime/boost regime on day 0 and day 21. […]
Anti-Ova total IgG titers in mouse serum were quantified by ELISA as described previously.^11-12 Briefly, 96-well high-binding ELISA plates (Thermo Fisher Scientific, Waltham, MA, USA) were coated overnight with 10 μg/mL of the Ova protein used for immunization. […] No detectable titers were measured in serum samples from naïve control animals.
as §4

Row | Compound | In vivo cytotoxicity of Ova-CD8+ T cells, comparison with AddaVax-Ova (ANOVA, Tukey) (C57BL/6NCrl mice [1]) | Change in cytotoxic killing on reducing SLA dose (C57BL/6NCrl mice [1]) | Adjuvant effectiveness relative to SLA-1 (cytotoxic killing) (C57BL/6NCrl mice [1]; FIG. 8) | CD8+ T cell cytotoxicity at lower Ova antigen or SLA adjuvant dose (C57BL/6NCrl mice [1]) | Number of IFN γ-secreting Ova-CD8+ T cells, comparison with AddaVax-Ova (ANOVA, Tukey) (C57BL/6NCrl mice [2]; day 28) | Number of IFN γ-secreting Ova-CD8+ T cells, comparison with MPL/alum-Ova (ANOVA, Tukey) (C57BL/6NCrl mice [2]; day 28) | Change in ability to induce IFN-γ+ Ova-CD8+ T cells on reducing SLA dose (C57BL/6NCrl mice [2]) | Adjuvant effectiveness relative to SLA-1 (IFN-γ ELISPOT) (C57BL/6NCrl mice [2]; FIG. 7) | Differences between SLA formulations to produce IFN-γ+ Ova-CD8+ T cells (C57BL/6NCrl mice [2]) | Anti-Ova IgG titres, comparison with MPL/alum (one-way ANOVA, Tukey) (C57BL/6NCrl mice [3]) | IFN-γ detectable spots (C57BL/6NCrl mice [2]; Ova antigen alone, unadjuvanted, day 28)
1 | CC(C)CCCC(C)CCCC(C)CCCC(C)CCOCC(CO[C@@H]1OC(CO)C(O[C@@H]2OC(COS(=O)(=O)O)C(O)[C@H](O)C2O)[C@H](O)C1O)OCCC(C)CCCC(C)CCCC(C)CCCC(C)C (mixture of isomers) [SLA-3] | SLA-3>AddaVax™-Ova | Lesser reductions | at least as effective as SLA-1 | lower CD8^+ T cell cytotoxicity | SLA-3>AddaVax™-Ova | SLA-3>MPL/alum-Ova | Lesser reductions | at least as effective as SLA-1; also recorded: as effective an adjuvant as semi-synthetically produced SLA | no statistically significant differences | SLA-3>MPL/alum-Ova | –
2 | CC(C)CCCC(C)CCCC(C)CCCC(C)CCOC[C@@H](CO[C@@H]1O[C@H](CO)[C@@H](O[C@@H]2O[C@H](COS(=O)(=O)O)[C@H](O)[C@H](O)[C@H]2O)[C@H](O)[C@H]1O)OCCC(C)CCCC(C)CCCC(C)CCCC(C)C (stereo partly drawn) [SLA-1, 6′-sulfate-β-D-Galp-(1,4)-β-D-Glcp-(1,1)-archaeol, reference compound] | SLA-1>AddaVax™-Ova | significantly reduces | – | lower CD8^+ T cell cytotoxicity | SLA-1>AddaVax™-Ova | SLA-1>MPL/alum-Ova | significantly reduces | – | no statistically significant differences | SLA-1>MPL/alum-Ova | –
3 | Ova: Ova protein (type VI, Sigma-Aldrich), model antigen; unadjuvanted control group [reference compound] | – | – | – | – | – | – | – | – | – | – | less than three
